In EP1182931B1, “STABLE BIOCIDAL COMPOSITIONS” (NUFARM LIMITED, priority 1999, dated 2000):

What was measured:
[1] = tested on: Protozoa; conditions: Spectrum of Activity; cited from earlier work
[2] = tested on: gastrointestinal roundworm; experiment: Sheep trial CO52: faecal egg count reduction; type: in vivo; conditions: lambs, oral, six days after treatment, versus untreated controls, arithmetic mean
Protocol: An anthelmintic drench trial was conducted on a sheep farm in North Auckland, New Zealand using 67 Romney and Romney cross suffock lambs (18-35kg bodyweight) of mixed sex.
The 67 lambs were randomly allocated by egg count into 4 groups of 10 lambs (Groups A, B, C, D) and 3 groups of 9 lambs (Groups E, F, G). The 3 groups of 9 lambs (E, F G) were drenched with a commercial formulation from one of the three broad spectrum anthelmintic drench families consisting of albendazole, a member of the benzimidazole or white drenches (Group E), levamisole, a member of the imidazothiazole / tetrahydropyrimidazole or clear drenches (Group F) and Ivermectin, a member of the macrocyclic lactones (Group G). Of the 4 remaining groups, Group A remained as untreated controls, Group B received the unmineralised test product (formulation 00-27C) containing all 3 actives (albendazole, levamisole, ivermectin), Group C received the same basic formulation but with the addition of selenium as the sodium selenate (formulation 00-27B) and Group D received the same basic formulation but with the addition of both selenium and cobalt with cobalt given as the cobalt chelate (formulation 00-27A) - See Table 27.
All animals were weighed and dosed by syringe to the nearest 0.1ml with the appropriate product for that group. Six days after oral treatment the animals were slaughtered and faecal samples were collected at slaughter.

[3] = tested on: Nematodirus; experiment: Trial C0040 sheep roundworm and tapeworm trial: worm count; type: in vivo; conditions: lambs, oral, slaughter Day 7 and Day 8
Protocol: (§1) Fifty three pasture fed 6-8 month old Romney lambs from the southern North Island, New Zealand that were naturally infected with tapeworms, were orally dosed with three times the standard dose of ivermectin (3 x 0.2 = 0.6mg/kg liveweight) to remove their naturally acquired roundworm infection while leaving their tapeworm burden. The animals were then housed indoors on slats to prevent natural reinfections with roundworms and each lamb was orally dosed daily for 5 days with a similar mixture of 5,000 roundworm larvae (total 25,000 larvae) consisting primarily of Haemonchus, Trichostrongylus, Ostertagia and Nematodirus. The larvae originated from four New Zealand sheep farms, three of which had evidence of resistance to one or more drench families. Lambs were injected with 0.5mL of a corticosteroid (opticortenol) two days prior to artificial oral larval infection. This was done to assist establishment of the worm larvae. 25 days after infection the animals were restrictively allocated to groups by bodyweight and also the presence of tapeworm infection, to one of seven treatment groups (Groups A-G). Four treatment groups (the untreated control and test products Groups A-D) had 8 animals per group, and three groups (E-G) contained 7 animals per group. The groups with 7 animals per group (E, F, G) were orally dosed with a single standard commercial product. All animals were slaughtered at Day 7 and Day 8 after treatment and total numbers of gastrointestinal roundworms and tapeworms counted.

[4] = tested on: Ostertagia; experiment: as above; type: in vivo; conditions: lambs, oral, slaughter Day 7 and Day 8
Protocol: as §1

[5] = tested on: Gastrointestinal Worms; conditions: Spectrum of Activity; cited from earlier work
[6] = tested on: Moniezia; experiment: Trial C0040 sheep roundworm and tapeworm trial: tapeworm count; type: in vivo; conditions: lambs, oral, slaughter Day 7 and Day 8
Protocol: as §1, with “The groups with 7 animals per group (E, F, G) were orally dosed with a single standard commercial product.” left out

[7] = tested on: Haemonchus; experiment: Trial C0040 sheep roundworm and tapeworm trial: worm count; type: in vivo; conditions: lambs, oral, slaughter Day 7 and Day 8, arithmetic means
Protocol: as §1

[8] = tested on: Trichostrongylus; experiment: as above; type: in vivo; conditions: lambs, oral, slaughter Day 7 and Day 8
Protocol: as §1

| Compound | reductions in egg count [2] | reduction of Nematodirus in the small intestine [3] | removal of worm numbers, Ostertagia [4] | Nematodes Gastrointestinal Worms [5] | further results |
| --- | --- | --- | --- | --- | --- |
| COC(=O)Nc1nc2cc(Sc3ccccc3)ccc2[nH]1 [Fendendazole] | – | – | – | – | Protozoa [1]: +(Giardia) |
| Ivermectin | 79% | 100% | 54% | – | – |
| c1ccc([C@H]2CN3CCSC3=N2)cc1 [Levamisole] | 22% | 99% | 96% | – | – |
| Cc1cc(C(C#N)c2ccc(Cl)cc2)c(Cl)cc1NC(=O)c1cc(I)cc(I)c1O (stereo not drawn) [Closantel] | – | – | – | +(Haemonchus) | – |
| CCCSc1ccc2nc(NC(=O)OC)[nH]c2c1 [Albendazole] | 63% | 59% | 64% | – | effect on tapeworm Moniezia [6]: slight trend to less Moniezia volume; Protozoa [1]: +(Giardia); reduction in worm numbers, Haemonchus [7]: 93%; efficacy against Trichostrongylus in the small intestine [8]: 80% |
| O=C(Nc1cc(Cl)cc(Cl)c1O)c1c(O)c(Cl)cc(Cl)c1Cl [Oxydosanide] | – | – | – | +(Haemonchus) | – |
| O=C(Nc1ccc(Oc2ccc(Cl)cc2)c(Cl)c1)c1cc(I)cc(I)c1O [Rafoxamide] | – | – | – | +(Haemonchus) | – |
| N#Cc1cc(I)c(O)c([N+](=O)[O-])c1 [Nitroxyinil] | – | – | – | +(Haemonchus) | – |
